Experimental data taken from article PMC8704707 (Pharmaceuticals, 2021).
Values after ≈ are worked out from the molar mass of the structure shown. Like-named read-outs stand apart in the source and are kept apart here.

Key:
[1] = test system: Staphylococcus aureus ATCC 29213; assay: Antibacterial microdilution broth method (EUCAST); type: cell-based
[2] = test system: methicillin-resistant Staphylococcus aureus ATCC 43300; assay: Antibacterial microdilution broth method (EUCAST); type: cell-based; settings: ATCC 43300 / MRSA
[3] = test system: Staphylococcus epidermidis ATCC 12228; assay: Antibacterial microdilution broth method (EUCAST); type: cell-based
[4] = test system: Enterococcus faecalis ATCC 29212; assay: Antibacterial microdilution broth method (EUCAST); type: cell-based
[5] = test system: Escherichia coli ATCC 25922; assay: Antibacterial microdilution broth method (EUCAST); type: cell-based
[6] = test system: Acinetobacter baumannii ATCC 19606; assay: Antibacterial microdilution broth method (EUCAST); type: cell-based
[7] = test system: Pseudomonas aeruginosa ATCC 27853; assay: Antibacterial microdilution broth method (EUCAST); type: cell-based
[8] = target: AChE from electric eel (EeAChE) (Electrophorus electricus, UniProt O42275); assay: biochemical; type: biochemical
Sequence of AChE from electric eel (EeAChE) (O42275 24-633): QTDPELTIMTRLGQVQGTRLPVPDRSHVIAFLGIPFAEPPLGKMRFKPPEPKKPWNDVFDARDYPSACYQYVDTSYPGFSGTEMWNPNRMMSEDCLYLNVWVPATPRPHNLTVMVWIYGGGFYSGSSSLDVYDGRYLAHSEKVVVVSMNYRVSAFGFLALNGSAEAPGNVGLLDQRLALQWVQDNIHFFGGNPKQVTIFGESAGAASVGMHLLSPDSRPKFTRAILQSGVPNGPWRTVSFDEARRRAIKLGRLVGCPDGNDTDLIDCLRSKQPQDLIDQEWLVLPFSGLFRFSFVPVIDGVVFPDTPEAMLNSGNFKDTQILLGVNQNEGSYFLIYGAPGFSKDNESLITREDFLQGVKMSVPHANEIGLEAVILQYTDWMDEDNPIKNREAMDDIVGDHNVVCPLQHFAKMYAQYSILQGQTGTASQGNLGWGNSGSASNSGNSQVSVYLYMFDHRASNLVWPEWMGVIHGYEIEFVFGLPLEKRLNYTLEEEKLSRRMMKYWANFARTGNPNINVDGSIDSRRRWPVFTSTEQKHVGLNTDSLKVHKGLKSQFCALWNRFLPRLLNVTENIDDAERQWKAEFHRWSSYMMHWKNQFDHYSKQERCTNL

[9] = target: BuChE from equine serum (EqBuChE) (Equus caballus, UniProt P81908); assay: biochemical
Sequence of BuChE from equine serum (EqBuChE) (P81908 whole entry): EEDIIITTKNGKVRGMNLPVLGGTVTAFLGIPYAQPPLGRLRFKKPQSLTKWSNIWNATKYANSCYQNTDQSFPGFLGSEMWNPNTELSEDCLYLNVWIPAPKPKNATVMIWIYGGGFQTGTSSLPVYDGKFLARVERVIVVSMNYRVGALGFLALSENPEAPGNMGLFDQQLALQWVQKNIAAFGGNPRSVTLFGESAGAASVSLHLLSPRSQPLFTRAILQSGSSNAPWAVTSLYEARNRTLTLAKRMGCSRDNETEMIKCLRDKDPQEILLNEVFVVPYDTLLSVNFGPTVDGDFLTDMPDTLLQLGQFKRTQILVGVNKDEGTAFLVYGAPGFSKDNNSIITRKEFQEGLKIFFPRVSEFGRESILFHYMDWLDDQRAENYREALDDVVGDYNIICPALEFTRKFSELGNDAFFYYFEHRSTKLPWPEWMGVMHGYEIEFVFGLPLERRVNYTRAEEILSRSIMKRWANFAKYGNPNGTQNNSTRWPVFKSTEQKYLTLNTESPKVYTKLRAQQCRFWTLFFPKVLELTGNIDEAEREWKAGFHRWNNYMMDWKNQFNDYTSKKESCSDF

[10] = test system: eight human pathogenic fungi; assay: Antifungal microdilution broth method, whole panel; type: cell-based; settings: not reported in Table 2, read-out: MIC, all fungal strains tested
[11] = test system: Klebsiella pneumoniae ATCC 10031; settings: for MIC KP 24 h: 24 h incubation; for MIC KP 48 h: 48 h incubation
[12] = test system: Candida albicans ATCC 24443; assay: microbe, parasite or virus in culture; type: cell-based
Candida krusei ATCC 6258 = assay: microbe, parasite or virus in culture; type: cell-based; settings: Pichia kudriavzevii
[13] = test system: Candida parapsilosis ATCC 22019; assay: microbe, parasite or virus in culture; type: cell-based; settings: Lodderomyces parapsilosis
[14] = test system: Candida tropicalis ATCC 750; assay: microbe, parasite or virus in culture; type: cell-based
[15] = test system: Trichophyton interdigitale ATCC 9533; assay: microbe, parasite or virus in culture; type: cell-based
[16] = ATCC29213, 24 h, read-out: MIC SA 24 h
[17] = ATCC29213, 48 h, read-out: MIC SA 48 h
[18] = ATCC12228, 24 h, read-out: MIC SE 24 h
[19] = ATCC12228, 48 h, read-out: MIC SE 48 h
[20] = ATCC29212, 24 h, read-out: MIC EF 24 h
[21] = ATCC29212, 48 h, read-out: MIC EF 48 h
[22] = ATCC25922, 24 h, read-out: MIC EC 24 h
[23] = ATCC25922, 48 h, read-out: MIC EC 48 h
[24] = ATCC19606, 24 h, read-out: MIC ACI 24 h
[25] = ATCC19606, 48 h, read-out: MIC ACI 48 h
[26] = ATCC27853, 24 h, read-out: MIC PA 24 h
[27] = ATCC27853, 48 h, read-out: MIC PA 48 h
[28] = mean ± SD, n = three independent experiments, ATCh 40 µM, read-out: IC50 AChE
[29] = mean ± SD, n = three independent experiments, BTCh 40 µM, read-out: IC50 BuChE

Method for HepG2 cells: Cytotoxicity of the tested compounds was measured using the standard hepatic cell line HepG2. The used CellTiter 96® assay is based on the reduction of tetrazolium dye (MTS) in living cells to formazan, which is then determined colorimetrically.

SMILES | MIC [1, 16] [µM] | MIC [1, 17] [µM] | MIC ([2]; 24 h, read-out: MIC MRSA 24 h) [µM] | MIC ([2]; 48 h, read-out: MIC MRSA 48 h) [µM] | MIC [3, 18] [µM] | MIC [3, 19] [µM] | MIC [4, 20] [µM] | MIC [4, 21] [µM] | MIC [5, 22] [µM] | MIC [5, 23] [µM] | MIC [6, 24] [µM] | MIC [6, 25] [µM] | MIC [7, 26] [µM] | MIC [7, 27] [µM] | Selectivity AChE/BuChE [8] | MIC [10] [µM] | MIC KP 24 h [11] [µM] | MIC KP 48 h [11] [µM] | IC50 [8, 28] [µM] | IC50 [9, 29] [µM] | further results
[H]/N=C(\N)NN=Cc1ccccc1 [Compound 1a, (E)-2-Benzylidenehydrazine-1-carboximidamide] | 500 (≈ 81.1 µg/mL) | 500 (≈ 81.1 µg/mL) | > 500 | > 500 | 250 (≈ 40.5 µg/mL) | 250 (≈ 40.5 µg/mL) | > 500 | > 500 | > 500 | > 500 | > 500 | > 500 | > 500 | > 500 | 0.81 | ≥ 500 | >500 | >500 | – | – | IC50 [8]: 36.19 ± 0.1 µM; IC50 ([9]; IC50 BuChE): 44.9 ± 0.54 µM
[H]/N=C(\N)NN=Cc1cc(I)c(O)c(I)c1 [Compound 2b, (E)-2-(4-Hydroxy-3,5-diiodobenzylidene)hydrazine-1-carboximidamide] | 500 (≈ 215 µg/mL) | 500 (≈ 215 µg/mL) | 500 (≈ 215 µg/mL) | 500 (≈ 215 µg/mL) | 250 (≈ 107 µg/mL) | 500 (≈ 215 µg/mL) | 500 (≈ 215 µg/mL) | 500 (≈ 215 µg/mL) | 500 (≈ 215 µg/mL) | 500 (≈ 215 µg/mL) | > 500 | > 500 | > 500 | > 500 | 0.87 | ≥ 500 | 250 (≈ 107 µg/mL) | 250 (≈ 107 µg/mL) | 40.3 ± 0.85 | 46.28 ± 0.29 | –
OC(Cn1cncn1)(Cn1cncn1)c1ccc(F)cc1F [FLU, fluconazole, reference compound] | – | – | – | – | – | – | – | – | – | – | – | – | – | – | – | – | – | – | – | – | IC50 ([12]; ATCC24443, 24 h, read-out: IC50 (50% growth inhibition) CA 24 h): 6.5 µM; IC50 ([12]; ATCC24443, 48 h, read-out: IC50 (50% growth inhibition) CA 48 h): 6.5 µM; IC50 (Candida krusei ATCC 6258; ATCC6258, 24 h, read-out: IC50 (50% growth inhibition) CK 24 h): > 104 µM; IC50 (Candida krusei ATCC 6258; ATCC6258, 48 h, read-out: IC50 (50% growth inhibition) CK 48 h): > 104 µM; IC50 ([13]; ATCC22019, 24 h, read-out: IC50 (50% growth inhibition) CP 24 h): 3.3 µM; IC50 ([13]; ATCC22019, 48 h, read-out: IC50 (50% growth inhibition) CP 48 h): 3.3 µM; IC50 ([14]; ATCC750, 24 h, read-out: IC50 (50% growth inhibition) CT 24 h): 6.5 µM; IC50 ([14]; ATCC750, 48 h, read-out: IC50 (50% growth inhibition) CT 48 h): 6.5 µM; IC50 ([15]; ATCC9533, 72 h, read-out: IC50 (50% growth inhibition) TI 72 h): 52.2 µM; IC50 ([15]; ATCC9533, 120 h, read-out: IC50 (50% growth inhibition) TI 120 h): 52.2 µM
NC(=O)N/N=C/c1cc(I)cc(I)c1O [Compound 2h, (E)-2-(2-Hydroxy-3,5-diiodobenzylidene)hydrazine-1-carboxamide] | 250 (≈ 108 µg/mL) | 250 (≈ 108 µg/mL) | 500 (≈ 215 µg/mL) | 500 (≈ 215 µg/mL) | 125 (≈ 53.9 µg/mL) | 125 (≈ 53.9 µg/mL) | > 500 | > 500 | > 500 | > 500 | > 500 | > 500 | > 500 | > 500 | 0.88 | ≥ 500 | >500 | >500 | 30.7 ± 0.33 | 34.7 ± 0.35 | –
NNC(N)=S [thiosemicarbazide, reference compound] | – | – | – | – | – | – | – | – | – | – | – | – | – | – | 0.14 | – | – | – | – | – | IC50 ([8]; read-out: IC50 AChE): 46.1 ± 1.1 µM; IC50 ([9]; read-out: IC50 BuChE): 327.8 ± 3.22 µM; Cytotoxicity in HepG2 in words (HepG2 cells): no significant cytotoxicity
N=C(N)NN [aminoguanidine, hydrazinecarboximidamide, reference compound] | – | – | – | – | – | – | – | – | – | – | – | – | – | – | 0.23 | – | – | – | – | – | IC50 ([8]; read-out: IC50 AChE): 75.14 ± 0.74 µM; IC50 ([9]; read-out: IC50 BuChE): 327 ± 18 µM; Cytotoxicity in HepG2 in words (HepG2 cells): no significant cytotoxicity
